Assay: Human HepG2 cell viability assay in 384 well format
Type: toxicity, cell-based
Design: dose 125 nL, time 70.5 hour; cytotoxicity at 70.5 h: concentration not given beside the values
Settings: HepG2 cells, read-out: Inhibition

Row | SMILES | cytotoxicity at 70.5 h
1 | CN(CCc1cccs1)C1CCCN(Cc2noc(C3CC3)n2)C1 (stereo not given) | 8.79%
2 | Cn1ccc2c(-c3cc(N4CCOCC4)ncn3)ccnc21 | -6.11%
3 | CC(C)c1nn(C)cc1CNCc1cccnc1N(C)C | 2.18%
4 | O=C1COC2(COCCN(c3cnccn3)C2)CN1c1cccc(F)c1 (stereo not given) | -6.69%
5 | CC(C)CCN1C(=O)CC(N(C)Cc2nc3ccccc3c(=O)[nH]2)C1=O (stereo not given) | -6.43%
6 | O=C(CN1CCCNC1=O)Nc1ccccc1C(=O)C1CCCC1 | -0.928%
7 | CCc1cnc(CNc2ccc(C(=O)NCc3ccco3)cc2C)o1 | -8.92%
8 | O=C(NCC1OCCc2cn(CC3CCOCC3)nc21)c1ccsc1 (stereo not given) | 5%
9 | CCCOc1ccc(CNCCn2cccn2)cc1 | -12.1%
10 | CSc1nnc(C2CCN(C(=O)N3CCCC3)CC2)n1C(C)C | 2.59%
11 | CC(C)OC(C)c1nnc(SCC(=O)O)n1-c1ccc(F)cc1F (stereo not given) | -6.19%
12 | CCc1nnc(CS(=O)(=O)c2ccc(C)cc2)n1C | -0.707%
13 | COc1cccc(CNC(=O)CC2CSc3nc(C)c(C)c(=O)n32)c1 (stereo not given) | -2.74%
14 | c1ccc(-n2nnnc2CN2CCCC(Cn3cncn3)C2)cc1 (stereo not given) | -0.367%
15 | O=C1CCC2(CCCN(C(=O)c3ncc[nH]3)C2)CN1CCc1c[nH]cn1 (stereo not given) | 13.6%
16 | CCC(c1nc(CC(C)C)nn1-c1ccccn1)n1cccn1 (stereo not given) | -12.3%
17 | Cc1ncoc1C(=O)N1CCOC(CC2CCCCC2)C1 (stereo not given) | -5.24%
18 | O=C(NC1CCCN(CCc2ccccc2)C1)c1cnccn1 (stereo not given) | -3.22%
19 | CCc1nnc(CN(C)Cc2nc(-c3ccccc3Cl)oc2C)o1 | -3.53%
20 | Cc1cc(CN2CCCC2)cc(Oc2ccc(C(F)(F)F)cn2)c1 | -0.531%
21 | CC(CS(C)(=O)=O)NC(=O)N1CC2(CCCC2)c2ccccc21 (stereo not given) | -2.3%
22 | O=C(c1ccc2[nH]ccc2c1)N1CCn2cc(CN3CCCC3)nc2C1 | -13.7%
23 | Cc1cccc(CN2CCC3(CCN(c4cccnc4)C3=O)C2)n1 (stereo not given) | 2.95%

Row | SMILES | cytotoxicity at 70.5 h
24 | COCc1nc(C(=O)NS(=O)(=O)c2ccc(F)c(F)c2)cs1 | -6.1%
25 | CCCc1nnc(N2CCC(N3CCCC3)CC2)o1 | 26%
26 | Cc1ccc(N2CCC3(CCN(C(=O)c4ccoc4)CC3)CC2)nn1 | -4.56%
27 | CC(C)NC(=O)N1CCCCCC1C1CCN(c2ncccn2)CC1 (stereo not given) | 19.7%
28 | Cc1cnn(CC(C)NCC(=O)NCCc2cccs2)c1 (stereo not given) | 10.8%
29 | CC(=O)NCc1nc(Cc2cccc(Cl)c2)nn1C1CCN(C)CC1 | 6.7%
30 | O=C(NCCc1ccccn1)[C@@]12CCO[C@@H]1CCN(C1CCC1)C2 | -6.9%
31 | Cn1cc(C2(C)CN(c3ncccc3C#N)CCO2)cn1 (stereo not given) | 3.03%
32 | Cc1cnn(CCNCc2c(C(C)C)nn(C)c2Cl)c1 | -2.72%
33 | O=C(NCc1ccco1)[C@H]1C[C@H]2OCC[C@H]2N(S(=O)(=O)C2CC2)C1 | -12.2%
34 | COc1cccc2c1OCC(NCc1cnn(-c3ccccc3F)c1)C2 (stereo not given) | -0.785%
35 | CCN(CC)C(=O)CCNC(=O)c1c[nH]c2ccc(OC)cc12 | 1.48%
36 | COc1cc(N2C[C@@H]3COC[C@]3(COc3ncccc3F)C2)ncn1 | -9.91%
37 | O=C1CC(c2ccncc2)c2c(sc3c2CCCC3)N1 (stereo not given) | -13.1%
38 | COc1cccc2c1OCC(C(=O)NC1CCN(S(C)(=O)=O)CC1)C2 (stereo not given) | 14%
39 | CN(CC1CCCCC1)C(=O)c1ccc(-n2ncc(C#N)c2N)cc1 | -5.32%
40 | O=C(NCCCn1ccnc1)NCC(c1ccco1)N1CCCC1 (stereo not given) | 5.06%
41 | CCc1ccccc1CNC(=O)CCc1cnn(C)c1 | -8.72%
42 | CN(C)CCCNC(=O)c1cnc(Cc2ccc(F)cc2)s1 | -6.21%
43 | c1coc(CN2C[C@@H]3OCCN(CC4CCCO4)[C@@H]3C2)c1 (stereo not given in full) | -11.5%
44 | CC(NC(=O)c1sccc1C1CC1)c1ccc2c(c1)CC(=O)N2 (stereo not given) | -1.98%
45 | CNC(=O)c1cccc(CN2CCC(N(C)Cc3nnc(C)o3)C2)c1 (stereo not given) | -6.28%
